Biological target: T1, PR (Homo sapiens, UniProt P06401)
T1 construct: made in house; host or cells: PR-B: rabbit reticulocyte lysate / T7 RNA polymerase in vitro translation (Promega)
T1 sequence (P06401 1-933): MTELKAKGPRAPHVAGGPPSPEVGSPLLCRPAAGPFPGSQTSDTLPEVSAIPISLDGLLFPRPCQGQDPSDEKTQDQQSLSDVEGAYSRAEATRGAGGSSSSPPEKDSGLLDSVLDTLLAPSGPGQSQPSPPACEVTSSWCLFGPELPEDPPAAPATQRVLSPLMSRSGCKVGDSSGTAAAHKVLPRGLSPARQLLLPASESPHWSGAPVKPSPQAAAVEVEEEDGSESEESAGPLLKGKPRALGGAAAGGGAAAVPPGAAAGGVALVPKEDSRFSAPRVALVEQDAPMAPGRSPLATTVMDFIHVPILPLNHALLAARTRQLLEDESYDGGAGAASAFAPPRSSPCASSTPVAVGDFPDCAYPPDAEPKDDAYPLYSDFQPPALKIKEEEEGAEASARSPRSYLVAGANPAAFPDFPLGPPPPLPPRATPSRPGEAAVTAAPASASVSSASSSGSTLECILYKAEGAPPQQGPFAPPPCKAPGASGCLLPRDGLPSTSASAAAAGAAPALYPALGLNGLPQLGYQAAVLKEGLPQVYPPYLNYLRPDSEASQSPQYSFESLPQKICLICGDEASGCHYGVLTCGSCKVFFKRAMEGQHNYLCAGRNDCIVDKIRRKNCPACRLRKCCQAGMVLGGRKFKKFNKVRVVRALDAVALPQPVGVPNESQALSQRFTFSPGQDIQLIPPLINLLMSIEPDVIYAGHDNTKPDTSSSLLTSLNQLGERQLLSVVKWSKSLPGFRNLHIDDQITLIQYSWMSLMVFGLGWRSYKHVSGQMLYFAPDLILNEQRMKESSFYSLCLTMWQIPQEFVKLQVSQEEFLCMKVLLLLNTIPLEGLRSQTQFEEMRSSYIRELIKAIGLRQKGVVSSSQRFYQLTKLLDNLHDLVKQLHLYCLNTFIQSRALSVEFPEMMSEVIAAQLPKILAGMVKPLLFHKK
T1 sequence (Q96PN7 1-1200 partner): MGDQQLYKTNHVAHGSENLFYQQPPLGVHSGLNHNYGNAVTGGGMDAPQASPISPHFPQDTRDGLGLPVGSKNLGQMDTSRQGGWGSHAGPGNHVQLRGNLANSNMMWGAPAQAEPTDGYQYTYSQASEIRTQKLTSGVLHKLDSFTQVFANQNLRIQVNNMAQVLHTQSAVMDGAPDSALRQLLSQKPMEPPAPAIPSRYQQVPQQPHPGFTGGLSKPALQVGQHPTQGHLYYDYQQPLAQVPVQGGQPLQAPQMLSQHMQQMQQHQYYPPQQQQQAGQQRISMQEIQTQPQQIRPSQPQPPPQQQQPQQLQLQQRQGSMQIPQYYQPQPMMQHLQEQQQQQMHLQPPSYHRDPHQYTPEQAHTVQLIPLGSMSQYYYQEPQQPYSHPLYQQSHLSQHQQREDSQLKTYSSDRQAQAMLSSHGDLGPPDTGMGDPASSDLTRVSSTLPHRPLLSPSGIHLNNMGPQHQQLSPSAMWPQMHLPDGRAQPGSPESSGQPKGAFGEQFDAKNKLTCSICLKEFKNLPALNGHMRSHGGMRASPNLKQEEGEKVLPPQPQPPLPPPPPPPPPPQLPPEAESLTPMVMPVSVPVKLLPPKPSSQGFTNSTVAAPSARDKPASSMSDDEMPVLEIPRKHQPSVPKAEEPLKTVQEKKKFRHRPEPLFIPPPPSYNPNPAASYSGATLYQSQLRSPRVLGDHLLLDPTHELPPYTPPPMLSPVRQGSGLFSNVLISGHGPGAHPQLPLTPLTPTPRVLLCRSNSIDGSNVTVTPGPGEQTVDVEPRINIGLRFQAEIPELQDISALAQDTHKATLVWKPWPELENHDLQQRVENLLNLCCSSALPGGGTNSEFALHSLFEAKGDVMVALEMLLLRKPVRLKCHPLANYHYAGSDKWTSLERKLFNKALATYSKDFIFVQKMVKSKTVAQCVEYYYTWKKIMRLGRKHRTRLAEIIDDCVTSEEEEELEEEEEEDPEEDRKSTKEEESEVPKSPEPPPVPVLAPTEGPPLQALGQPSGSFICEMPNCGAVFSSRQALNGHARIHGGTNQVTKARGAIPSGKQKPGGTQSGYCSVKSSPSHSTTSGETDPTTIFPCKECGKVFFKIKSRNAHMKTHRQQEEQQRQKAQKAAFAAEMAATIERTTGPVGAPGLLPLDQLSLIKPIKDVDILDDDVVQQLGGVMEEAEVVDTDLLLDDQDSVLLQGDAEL
Experiment: GST pull-down, TReP-132 and PR
Assay type: binding
Description: FIG. 14D left: GST-TReP-132 immobilized on glutathione-Sepharose was incubated with ^35-[S]-methionine-labelled PR, in the absence or with increasing concentrations of progesterone (0-10 μM). Specific interactions were analyzed by comparison with the results obtained by incubating GST with ^35-[S]-PR, in the presence of 100 μM progesterone (GST).
FIG. 14D right: GST-TReP-132 wt, GST-TReP-132 ml (mutated at the LRQLL site) and GST-TReP-132 m2 (mutated at the LEMLL site) were analyzed for interaction with ^35-[S]-PR as described earlier, in the presence of 10 μM progesterone. Input PR: 1/10th of the radiolabelled PR level used in the experiments.
In order to evaluate the interaction of TReP-132, Sp1, ER and PR, the wt and mutant GST-TReP-132 fusion proteins were expressed, then immobilized on glutathione-Sepharose as described (Frangioni and Neel, 1993; Monte et al., 1998). The ^35S-[Sp1], ^35S-[ER] and ^35S-[PR-B] proteins were synthesized in vitro using a rabbit reticulocyte lysate and T7 RNA polymerase system as directed by the manufacturer (Promega Corporation, Madison, Wis.). Proteins which bound, then detached from the Sepharose after being heated to boiling in SDS buffer were then separated on a 10% SDS-PAGE gel. The gels were stained with Coomassie blue, dried and autoradiographed.

**Q.** For `CC(=O)[C@H]1CC[C@H]2[C@@H]3CCC4=CC(=O)CC[C@]4(C)[C@H]3CC[C@]12C` [progesterone, reference compound], which “TReP-132/PR interaction in presence of progesterone” value (GST-TReP-132 and 35S-PR, progesterone 0-10 μM) is on record?
**A.** Its value is “increased in a dose-dependent manner”.

B1: TReP-132: Transcriptional Regulating Protein of 132 kDa, polypeptide comprising SEQ ID NO: 2; here expressed in cells from vectors (protein)
chain: T1 sequence (Q96PN7 1-1200 partner)
**Q.** B1 was tested. Which “interaction with PR” value (GST pull-down with 35S-PR) did it give?
**A.** Its value is “interact”.

— patent US20080044436A1, “Method for Screening and Compositions for Treating Cancers” (priority 2004, published 2008)
